≈ marks a conversion by molar mass, not a printed value. Calls of active or inactive are those of the source. The calls are words filed in the database; no cut-off is given here.

Series [1] deals with T1, Peptidyl-prolyl cis-trans isomerase FKBP1A (Homo sapiens, UniProt P62942). The experiment in a line: Antagonist activity at recombinant human N-terminal His6-tagged FKBP12 expressed in Escherichia coli assessed as inhibition of FKBP12 binding to calcineurin at […] using […] pretreated for 1 hr followed by substrate addition measured after 1 hr by biomol green dye based spectrophotometric method.

Another series has as its system Vero 76. Kind of series: Cytotoxicity against African green monkey Vero 76 cells. The class given is cell-based. The conditions noted are these: Chlorocebus sabaeus.
The nature of series [2]: AUClast in mouse at 10 mg/kg, po. It counts as ADME, organism-based. Further details: dose 10 mg/kg, time 0 - last, route oral. The conditions noted are these: in vivo.
Series [3] in a line: Clearance in mouse at 3 mg/kg, iv. The following applies: in vivo. The class given is ADME, organism-based.
Series [4] is described as follows: AUClast in mouse at 3 mg/kg, iv. It counts as ADME, organism-based. Also noted: dose 3 mg/kg, time 0 - last, route intravenous. The conditions noted are these: in vivo.
Series [5] can be described thus: Cmax in mouse at 10 mg/kg, po. The conditions noted are these: in vivo. Further details: dose 10 mg/kg, route oral. The class given is ADME, organism-based.
The test system of the next series is HepG2. The experiment in a line: Cytotoxicity against human HepG2 cells. It counts as cell-based.
The next series concerns Jurkat. Kind of series: Immunosuppressive activity in PMA/ionomycin stimulated human Jurkat T cells assessed as suppression of IL2 production pretreated for 15 to 30 mins followed by PMA/ionomycin addition measured after 18 to 20 hrs by ELISA. It counts as cell-based.
Series [6] can be described thus: Terminal half-life in mouse at 3 mg/kg, iv. The class given is ADME, organism-based. The conditions noted are these: in vivo, read-out: beta t1/2 (converted).
For series [7], the system named is Aspergillus fumigatus. Kind of series: Antifungal activity against Aspergillus fumigatus up to 25 ug/ml measured after 48 hrs by broth dilution method. It counts as functional. (In general: Broth dilution looks for growth in wells or tubes with falling amounts of substance.)
Series [8] has as its system PBMC. The experiment in a line: Reversal of FK506-induced inhibition of cell proliferation in concanavalin A stimulated human PBMC at 1 uM measured after 72 hrs by CellTiter-Glo assay relative to control. The class given is functional. Further details: scale not given: the % may be the effect or the level left. For orientation: Cellular ATP, detected with luciferase, serves as a proxy for viable cell number.

For series [9], the system named is PBMC. Kind of series: Permeability across human PBMC at 1 uM. The class given is ADME, cell-based.
In series [10] the test system is Aspergillus fumigatus. Kind of series: Antifungal activity against Aspergillus fumigatus assessed as spore germination at 12.5 ug/ml measured after 48 hrs in presence of FK506 by broth dilution method relative to control. The class given is functional.
For series [11], the target named is T1, Peptidyl-prolyl cis-trans isomerase FKBP1A. Kind of series: Antagonist activity at human FKBP12 measured after 30 mins by fluorescein labelled SLF tracer based fluorescence polarization assay.
The nature of series [12]: Volume of distribution at steady state in mouse at 3 mg/kg, iv. The following applies: in vivo, read-out: Vdss. It counts as ADME, organism-based.
Series [13] in a line: Tmax in mouse at 10 mg/kg, po. It counts as ADME, organism-based. The conditions noted are these: in vivo.
In series [14] the test system is PBMC. The experiment in a line: Antiproliferative activity against concanavalin A stimulated human PBMC at 1 to 2 ug/ml measured after 72 hrs by CellTiter-Glo assay. It counts as cell-based.
A short description of series [15]: Antagonist activity at Aspergillus fumigatus FKBP12 measured after 30 mins by fluorescein labelled SLF tracer based fluorescence polarization assay. A general note: Fluorescence polarisation rises when a labelled molecule tumbles more slowly, as on binding a larger partner.
For a further series, the system named is Cryptococcus neoformans. Kind of series: Antifungal activity against Cryptococcus neoformans by broth macrodilution method. It counts as functional.
In series [16] the test system is Aspergillus fumigatus. Kind of series: Antifungal activity against Aspergillus fumigatus by broth macrodilution method. It counts as functional.

T1 sequence (P62942 whole entry): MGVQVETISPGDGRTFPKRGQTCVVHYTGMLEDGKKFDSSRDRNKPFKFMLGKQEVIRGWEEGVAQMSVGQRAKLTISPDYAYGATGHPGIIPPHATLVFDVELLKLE

As to `CO[C@H]1C[C@@H](C)C/C(C)=C/[C@@H](CCCSCCO)C(=O)C[C@H](O)[C@@H](C)[C@@H](/C(C)=C/[C@@H]2CC[C@@H](O)[C@H](OC)C2)OC(=O)[C@@H]2CCCCN2C(=O)C(=O)[C@]2(O)O[C@H]1[C@@H](OC)C[C@H]2C`, the inhibition entry in series [1] is “inactive”. Further, the IC50 was greater than 100000 nM with Vero 76, greater than 100000 nM with HepG2, greater than 10000 nM in the series with Jurkat and 27 nM in series [11]. Also, the values for the AUC(0-t) in series [2] and in series [4] were 2710 ng·h/mL and 2110 ng·h/mL, respectively. The compound also had a clearance in series [3] of 22.8 mL/min/kg. This compound also gave a Cmax in [5] of 1640 ng/mL. Also, the half-life in [6] is 47.6 min. Further, the result in the series on Aspergillus fumigatus [7] was inactive. For the same compound, the values for the Activity in the series with PBMC [8], in the series on Aspergillus fumigatus [10] and in the series on PBMC [14] were 96.5%, 37.5% and “Non-Toxic”, respectively. The permeability in the series on PBMC [9] was found to be 100%. Also, in [12], the Vd came to 1.17 L/kg. For the same compound, in series [13], the time to peak (Tmax) came out at 30 min.
For `C=CC[C@@H]1/C=C(\C)C[C@H](C)C[C@H](OC)[C@H]2O[C@@](O)(C(=O)C(=O)N3CCCC[C@H]3C(=O)O[C@H](/C(C)=C/[C@@H]3CC[C@@H](O)[C@H](OC)C3)[C@H](C)[C@@H](O)CC1=O)[C@H](C)C[C@@H]2OC` [TACROLIMUS ANHYDROUS], the inhibition entry in [1] was “inactive”. For the same compound, the IC50 in series [15] was 18.4 nM; in the series on Vero 76, greater than 100000 nM; with HepG2 it was greater than 100000 nM; in the series on Jurkat, 360 nM. In series [3], this compound gave a clearance of 29.5 mL/min/kg. This compound returned an AUC(0-t) in [4] of 1620 ng·h/mL. Moreover, the minimal inhibitory concentration (MIC) against Cryptococcus neoformans was found to be 0.01 µg/mL (≈ 0.0124 µM); against Aspergillus fumigatus [16] it was 0.025 µg/mL (≈ 0.0311 µM). In addition, the half-life in [6] was 57.1 min. Besides, the Vd in [12] turned out to be 1.8 L/kg.

In general, IC50 refers to the concentration at which inhibition is half-maximal. A word on the AUC(0-t): it is the area under the concentration-time curve up to a stated or last time point. Usually clearance stands for the rate of elimination divided by the concentration. By Cmax is commonly meant the maximum level reached in the sampled fluid or tissue. Broadly, the Tmax is the time from dosing to the highest level. As a reminder, the MIC is the lowest concentration found to suppress growth.

The record behind these values is ChEMBL document CHEMBL4017474, “A calcineurin antifungal strategy with analogs of FK506” (Bioorg Med Chem Lett, 2017).
